Assay results taken from patent publication US8952024B2, “Herbicidal pyrimidone derivatives” (E I du Pont de Nemours and Company, priority 2009, dated 2015).
Like-named read-outs stand apart in the source and are kept apart here.

Experiments:
Format in all cases: in vivo
[1] = system: canarygrass (Phalaris minor); test: Test B postemergence plant response
Procedure, shortened: (§1)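 Plants at the 1- to 4-leaf stage (2 to 18 cm tall), grown in pots of peat moss/vermiculite medium with wetting agent and starter nutrients, received postemergence applications of test chemicals. After 13 to 15 days in a greenhouse, injury was rated visually against untreated controls on a 0 (no effect) to 100 (complete control) scale.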

[2] = system: windgrass (Apera spica-venti); test: Test B postemergence plant response
Procedure, shortened: as §1

[3] = system: chickweed (Stellaria media); test: Test B postemergence plant response
Procedure, shortened: as §1

[4] = system: giant foxtail (Setaria faberii); test: Test B pre-/postemergence plant response; conditions: for pest or weed control at 31 g/ha: 31 g ai/ha; for pest or weed control at 125 g/ha: 125 g ai/ha
Procedure, shortened: (§2)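 Ratings reflect visual comparison with untreated controls 13 to 15 days after application, from 0 (no effect) to 100 (complete control). Application was preemergence to seeded loam/sand soil or postemergence to 1- to 4-leaf plants, with compound in a non-phytotoxic, surfactant-containing solvent.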

[5] = system: wild oat (Avena fatua); test: Test B pre-/postemergence plant response; conditions: for pest or weed control at 31 g/ha: 31 g ai/ha; for pest or weed control at 125 g/ha: 125 g ai/ha
Procedure, shortened: as §2

[6] = system: johnsongrass (Sorghum halepense); test: Test B pre-/postemergence plant response; conditions: for pest or weed control at 31 g/ha: 31 g ai/ha; for pest or weed control at 125 g/ha: 125 g ai/ha
Procedure, shortened: as §2

[7] = system: soybean (Glycine max); test: Test B pre-/postemergence plant response; conditions: for plant injury at 125 g/ha: 125 g ai/ha
Procedure, shortened: as §2

[8] = system: yellow nutsedge (Cyperus esculentus); test: Test B pre-/postemergence plant response; conditions: for pest or weed control at 31 g/ha: 31 g ai/ha; for pest or weed control at 125 g/ha: 125 g ai/ha
Procedure, shortened: as §2

[9] = system: wheat (Triticum aestivum); test: Test B pre-/postemergence plant response; conditions: for plant injury at 125 g/ha: 125 g ai/ha
Procedure, shortened: as §2

[10] = system: blackgrass (Alopecurus myosuroides); test: Test B pre-/postemergence plant response; conditions: for pest or weed control at 31 g/ha: 31 g ai/ha
Procedure, shortened: as §2

[11] = 62 g ai/ha, postemergence, 0 is no effect, 100 is complete control, 13 to 15 days
[12] = Preemergence, 250 g ai/ha, 0 to 100 scale

SMILES: O=C1CCCC(O)=C1C(=O)c1cnc(-c2cccnc2)n(-c2ccccc2)c1=O [Compound 113, 5-[(2-hydroxy-6-oxo-1-cyclohexen-1-yl)carbonyl]-3-phenyl-2-(3-pyridinyl)-4(3H)-pyrimidone]
- Canarygrass plant response rating (0 to 100 scale) [1, 11]: 90
- pest or weed control at 31 g/ha ([1]; Phalaris minor, post-emergence, 360 h, 31 g ai/ha, postemergence, scale 0 to 100, 0 is no effect, 100 is complete control, read-out: Plant response rating, Canarygrass): 65%
- pest or weed control at 250 g/ha ([1]; Phalaris minor, post-emergence, 360 h, Postemergence, 250 g ai/ha, scale 0 to 100 (0 no effect, 100 complete control), read-out: Plant response rating, Canarygrass): 90%
- Windgrass plant response rating (0 to 100 scale) [2, 11]: 30
- pest or weed control at 125 g/ha ([2]; Apera spica-venti, post-emergence, 360 h, Postemergence, 125 g ai/ha, scale 0 to 100 (0 no effect, 100 complete control), read-out: Plant response rating, Windgrass): 35%
- Chickweed plant response rating (0 to 100 scale) [3, 11]: 98
- pest or weed control at 31 g/ha ([3]; Stellaria media, post-emergence, 360 h, 31 g ai/ha, postemergence, scale 0 to 100, 0 is no effect, 100 is complete control, read-out: Plant response rating, Chickweed): 98%
- pest or weed control at 125 g/ha ([3]; Stellaria media, post-emergence, 360 h, Postemergence, 125 g ai/ha, scale 0 to 100 (0 no effect, 100 complete control), read-out: Plant response rating, Chickweed): 100%
- pest or weed control at 250 g/ha ([3]; Stellaria media, post-emergence, 360 h, Postemergence, 250 g ai/ha, scale 0 to 100 (0 no effect, 100 complete control), read-out: Plant response rating, Chickweed): 100%
- Foxtail, Giant plant response rating (0 to 100 scale) [4, 11]: 85
- Foxtail, Giant plant response rating [4, 12]: 85
- pest or weed control at 31 g/ha ([4]; Setaria faberi, post-emergence, postemergence, scale 0 to 100, 0 is no effect, 100 is complete control, read-out: Plant response rating, Foxtail, Giant): 80%
- pest or weed control at 125 g/ha ([4]; Setaria faberi, post-emergence, Postemergence, scale 0 to 100 (0 no effect, 100 complete control), read-out: Plant response rating, Foxtail, Giant): 90%
- pest or weed control at 250 g/ha ([4]; Setaria faberi, post-emergence, Postemergence, 250 g ai/ha, scale 0 to 100 (0 no effect, 100 complete control), read-out: Plant response rating, Foxtail, Giant): 95%
- pest or weed control at 31 g/ha ([4]; Setaria faberi, pre-emergence, Preemergence, scale 0 to 100 (0 no effect, 100 complete control), read-out: Plant response rating, Foxtail, Giant): 5%
- pest or weed control at 62 g/ha ([4]; Setaria faberi, pre-emergence, Preemergence, 62 g ai/ha, scale 0 to 100, 0 no effect, 100 complete control, read-out: Plant response rating, Foxtail, Giant): 40%
- pest or weed control at 125 g/ha ([4]; Setaria faberi, pre-emergence, Preemergence, scale 0 to 100, 0 no effect, 100 complete control, read-out: Plant response rating, Foxtail, Giant): 60%
- Oat, Wild plant response rating (0 to 100 scale) [5, 11]: 40
- pest or weed control at 31 g/ha ([5]; Avena fatua, post-emergence, postemergence, scale 0 to 100, 0 is no effect, 100 is complete control, read-out: Plant response rating, Oat, Wild): 20%
- pest or weed control at 125 g/ha ([5]; Avena fatua, post-emergence, Postemergence, scale 0 to 100 (0 no effect, 100 complete control), read-out: Plant response rating, Oat, Wild): 45%
- pest or weed control at 250 g/ha ([5]; Avena fatua, post-emergence, Postemergence, 250 g ai/ha, scale 0 to 100 (0 no effect, 100 complete control), read-out: Plant response rating, Oat, Wild): 85%
- pest or weed control at 31 g/ha ([5]; Avena fatua, pre-emergence, Preemergence, scale 0 to 100 (0 no effect, 100 complete control), read-out: Plant response rating, Oat, Wild): 0%
- pest or weed control at 62 g/ha ([5]; Avena fatua, pre-emergence, Preemergence, 62 g ai/ha, scale 0 to 100 (0 no effect, 100 complete control), read-out: Plant response rating, Oat, Wild): 5%
- pest or weed control at 125 g/ha ([5]; Avena fatua, pre-emergence, Preemergence, scale 0 to 100, 0 no effect, 100 complete control, read-out: Plant response rating, Oat, Wild): 20%
- Oat, Wild plant response rating [5, 12]: 40
- Johnsongrass plant response rating (0 to 100 scale) [6, 11]: 85
- Johnsongrass plant response rating [6, 12]: 70
- pest or weed control at 31 g/ha ([6]; Sorghum halepense, post-emergence, postemergence, scale 0 to 100, 0 is no effect, 100 is complete control, read-out: Plant response rating, Johnsongrass): 65%
- pest or weed control at 125 g/ha ([6]; Sorghum halepense, post-emergence, Postemergence, scale 0 to 100 (0 no effect, 100 complete control), read-out: Plant response rating, Johnsongrass): 90%
- pest or weed control at 250 g/ha ([6]; Sorghum halepense, post-emergence, Postemergence, 250 g ai/ha, scale 0 to 100 (0 no effect, 100 complete control), read-out: Plant response rating, Johnsongrass): 95%
- pest or weed control at 31 g/ha ([6]; Sorghum halepense, pre-emergence, Preemergence, scale 0 to 100 (0 no effect, 100 complete control), read-out: Plant response rating, Johnsongrass): 0%
- pest or weed control at 62 g/ha ([6]; Sorghum halepense, pre-emergence, Preemergence, 62 g ai/ha, scale 0 to 100, 0 no effect, 100 complete control, read-out: Plant response rating, Johnsongrass): 5%
- pest or weed control at 125 g/ha ([6]; Sorghum halepense, pre-emergence, Preemergence, scale 0 to 100, 0 no effect, 100 complete control, read-out: Plant response rating, Johnsongrass): 60%
- Soybean plant response rating (0 to 100 scale) [7, 11]: 98
- plant injury at 125 g/ha ([7]; Glycine max, post-emergence, Postemergence, scale 0 to 100 (0 no effect, 100 complete control), read-out: Plant response rating, Soybean): 98%
- plant injury at 250 g/ha ([7]; Glycine max, post-emergence, Postemergence, 250 g ai/ha, scale 0 to 100 (0 no effect, 100 complete control), read-out: Plant response rating, Soybean): 98%
- plant injury at 31 g/ha ([7]; Glycine max, pre-emergence, Preemergence, 31 g ai/ha, scale 0 to 100 (0 no effect, 100 complete control), read-out: Plant response rating, Soybean): 0%
- plant injury at 62 g/ha ([7]; Glycine max, pre-emergence, Preemergence, 62 g ai/ha, scale 0 to 100, 0 no effect, 100 complete control, read-out: Plant response rating, Soybean): 65%
- plant injury at 125 g/ha ([7]; Glycine max, pre-emergence, Preemergence, scale 0 to 100, 0 no effect, 100 complete control, read-out: Plant response rating, Soybean): 85%
- Soybean plant response rating [7, 12]: 90
- Nutsedge, Yellow plant response rating (0 to 100 scale) [8, 11]: 75
- pest or weed control at 31 g/ha ([8]; Cyperus, post-emergence, postemergence, scale 0 to 100, 0 is no effect, 100 is complete control, read-out: Plant response rating, Nutsedge, Yellow): 65%
- pest or weed control at 125 g/ha ([8]; Cyperus, post-emergence, Postemergence, scale 0 to 100 (0 no effect, 100 complete control), read-out: Plant response rating, Nutsedge, Yellow): 75%
- pest or weed control at 250 g/ha ([8]; Cyperus, post-emergence, Postemergence, 250 g ai/ha, scale 0 to 100 (0 no effect, 100 complete control), read-out: Plant response rating, Nutsedge, Yellow): 75%
- pest or weed control at 31 g/ha ([8]; Cyperus, pre-emergence, Preemergence, scale 0 to 100 (0 no effect, 100 complete control), read-out: Plant response rating, Nutsedge, Yellow): 65%
- pest or weed control at 62 g/ha ([8]; Cyperus, pre-emergence, Preemergence, 62 g ai/ha, scale 0 to 100 (0 no effect, 100 complete control), read-out: Plant response rating, Nutsedge, Yellow): 80%
- pest or weed control at 125 g/ha ([8]; Cyperus, pre-emergence, Preemergence, scale 0 to 100, 0 no effect, 100 complete control, read-out: Plant response rating, Nutsedge, Yellow): 90%
- Nutsedge, Yellow plant response rating [8, 12]: 90
- Wheat plant response rating (0 to 100 scale) [9, 11]: 15
- Wheat plant response rating [9, 12]: 10
- plant injury at 125 g/ha ([9]; Triticum aestivum, post-emergence, Postemergence, scale 0 to 100 (0 no effect, 100 complete control), read-out: Plant response rating, Wheat): 40%
- plant injury at 31 g/ha ([9]; Triticum aestivum, pre-emergence, Preemergence, 31 g ai/ha, scale 0 to 100 (0 no effect, 100 complete control), read-out: Plant response rating, Wheat): 0%
- plant injury at 62 g/ha ([9]; Triticum aestivum, pre-emergence, Preemergence, 62 g ai/ha, scale 0 to 100 (0 no effect, 100 complete control), read-out: Plant response rating, Wheat): 0%
- plant injury at 125 g/ha ([9]; Triticum aestivum, pre-emergence, Preemergence, scale 0 to 100, 0 no effect, 100 complete control, read-out: Plant response rating, Wheat): 10%
- Blackgrass plant response rating (0 to 100 scale) [10, 11]: 0
- pest or weed control at 31 g/ha ([10]; Alopecurus myosuroides, post-emergence, 360 h, postemergence, scale 0 to 100, 0 is no effect, 100 is complete control, read-out: Plant response rating, Blackgrass): 0%
- pest or weed control at 125 g/ha ([10]; Alopecurus myosuroides, post-emergence, 360 h, Postemergence, 125 g ai/ha, scale 0 to 100 (0 no effect, 100 complete control), read-out: Plant response rating, Blackgrass): 5%
- pest or weed control at 250 g/ha ([10]; Alopecurus myosuroides, post-emergence, 360 h, Postemergence, 250 g ai/ha, scale 0 to 100 (0 no effect, 100 complete control), read-out: Plant response rating, Blackgrass): 5%
- pest or weed control at 31 g/ha ([10]; Alopecurus myosuroides, pre-emergence, 360 h, Preemergence, scale 0 to 100 (0 no effect, 100 complete control), read-out: Plant response rating, Blackgrass): 0%
- pest or weed control at 62 g/ha ([10]; Alopecurus myosuroides, pre-emergence, 360 h, Preemergence, 62 g ai/ha, scale 0 to 100, 0 no effect, 100 complete control, read-out: Plant response rating, Blackgrass): 0%
